From patent US12446577B2 (priority 2018, dated 2025)
Like-named read-outs stand apart in the source and are kept apart here.

How the values were obtained:
Fusarium graminearum = format: cell-based; details: 6 days at 25° C; for Average mycellium diameter: n = 4; for % inhibition of the pathogens: vs untreated PDA
Phytophthora infestans = format: in vivo; details: 1 min dip, 7 days of incubation; for Lesion Size: n = 5
Plasmopara viticola = Plasmopara viticola grapevine leaf disc test; format: in vivo
Protocol: A stock solution of choline pelargonate (29.1% PLA and 40.4% Choline hydroxide, pH 8.82) was made by mixing 14.55 mL PLA with 15.25 mL distilled water and afterwards the addition of 20.2 mL of Choline hydroxide. The choline pelargonate stock solution (42.04%) was diluted in order to create a solution with a final concentration of choline pelargonate equal to 1 mL/L and 10 mL/L. The two choline pelargonate solutions, water as negative control and copper hydroxide (2 g/L) as positive control were used for this test. For each object 4 Petri plates were prepared and each plate contains 5 grapevine leaf discs (see Table 8 below).
Leaf discs preparation: leaf discs (diameter 19 mm) were prepared from grapevine cuttings (variety Pinot Nero Entav 115) using the young leaves. 5 leaf discs were placed in each Petri Plate on autoclaved paper (4 layers), the paper was previously wetted by adding 8.5 mL of sterile water in each plate. The leaf discs were placed on the paper with the abaxial side upward.
Test products application and pathogen inoculation: leaf discs were treated with the test products at 11.30 A.M (i.e. a preventive application) and the leaves were allowed to dry. The products were sprayed with a small hand sprayer; 5 sprays were applied on each plate. The same day at 16.30 a suspension of P. viticola spores at final concentration of 2*10^5 spore/mL was applied (5 hours after test product application) on the leaf discs. The inoculated plates were incubated overnight in the dark at 25° C. The following day, the leaf discs were dried under the laminar flow and then placed back at 25° C. The disease assessment was done 7 days after the artificial inoculation.

Botrytis cinerea = experiment: Mycelium growth inhibition on PDA (Example 7); format: cell-based; details: 3 days at 25° C; for Average mycelium diameter: n = 4
Protocol: (§1) Strains used for this trial were kept and refreshed on Potato Dextrose Agar (PDA) at 25° C.
(§2) To begin, a quantity of test product was directly added in a certain volume of PDA (about 20 mL/petri dish) (Table 11). Plugs of agar (diameter 10 mm) from one week-old cultures were placed at the centre of the PDA plates. Each object was performed in 4 repetitions. The petri dishes were then incubated at 25° C. in the dark. After 3 and 6 days of incubation, the diameter of the colonies was measured in 2 perpendicular directions. The percentage of inhibition was calculated for each product/concentration compare to the untreated.

Sclerotinia sclerotiorum = experiment: Mycelium growth inhibition on PDA (Example 7); format: cell-based; details: 3 days at 25° C; for Average mycelium diameter: n = 4
Protocol: as §1, §2

Pythium ultimum = experiment: Mycelium growth inhibition on PDA (Example 7); format: cell-based; details: 3 days at 25° C; for Average mycelium diameter: n = 4
Protocol: as §1, §2

Sclerotinia minor = experiment: Mycelium growth inhibition on PDA (Example 7); format: cell-based; details: 3 days at 25° C; for Average mycelium diameter: n = 4
Protocol: as §1, §2

Rhizoctonia solani = experiment: Mycelium growth inhibition on PDA (Example 7); format: cell-based; details: 3 days at 25° C; for Average mycelium diameter: n = 4
Protocol: as §1, §2

powdery mildew on apple = experiment: Trial on potted apple trees against powdery mildew; format: in vivo; details: day 85; weekly sprays (TMAP 10 mL/L; Chemical per Table 13/14); 1000 leaves per object
Description: (§3) During the third week of March 2017, 60 branched apple trees (rootstock M9—clone Golden B) of 2 years were transplanted from a local nursery into pots (pot: 12 Liters). The 60 potted apple plants were maintained outside the greenhouse in S. Michele all′Adige (Trento). Plants were maintained divided in 3 blocks. Each block was composed of 20 plants arranged in two rows (See scheme 1). Plants were watered through a drip irrigation system once or twice a week according to the weather conditions. The insecticidal treatments were applied uniformly on all the experimental plants. Two of the three objects were treated against powdery mildew in accordance with the foreseen spray scheme: Chemical treatments, TMAP alone, untreated. One object was maintained Untreated as reference. For the “Chemical” object, different active ingredients were used alone or in combination (Table 13).
The treatments were performed at the same time, and timings of spray were done weekly and according to the weather conditions. […]
Powdery mildew: 5 shoots per each plant were randomly selected and labeled for the assessments. The assessment on powdery mildew was done on day 85, ten leaves of each shoot were singularly evaluated for the presence of symptoms, 5 marked shoots per plant were assessed. […]
Data of powdery mildew incidence were analyzed using the Statistica 13.1 software.

apple trees = experiment: Phytotoxicity on apple trees in the powdery mildew trial; format: in vivo; details: repeated applications during the season, 10 mL/L
Description: as §3
The treatments were performed at the same time, and timings of spray were done weekly and according to the weather conditions. The applications were done with a pressurized hand sprayer (water volume 1.5-2 L per object).

Bintje leaflets = experiment: Phytotoxicity symptoms on dipped potato leaflets (Example 4); format: in vivo; details: highest concentration (10 L/ha), 7 days
[1] = system: Powdery Mildew (Podosphaera xanthii); experiment: Single leaf test powdery mildew on zucchini; details: zucchini leaf N sprayed with 0.8% in water; 8 days after the treatment
Protocol: Single leaf test Powdery Mildew (Podosphaera xanthii). A zucchini plant was selected with a powdery mildew infection on old leaves. In addition to a leaf showing the first signs of infection of powdery mildew (leaf N−1), two leaves without infection (leaf N and N+1) were selected.
Leaves (N+1) and (N−1) were left untreated. The fungal infection was assessed 8 days after the treatment.

[2] = dose rate 1 L·kg/ha (0.2 mL in 100 mL water)
[3] = dose rate 10 L·kg/ha (2 mL in 100 mL water)

In the case of CCCCCCCCC(=O)[O-].C[N+](C)(C)CCO [Choline pelargonate, choline pelargonate], the Average mycellium diameter (Fusarium graminearum; 0.36% AI in PDA) is reported as 17.6 ± 21.1 mm, the “% inhibition of the pathogens” value (Fusarium graminearum; 0.36% AI in PDA) is reported as 77% and the Average mycellium diameter (Fusarium graminearum; 3.6% AI in PDA) is reported as 0.0 ± 0.0 mm. For the same compound, the “% inhibition of the pathogens” value (Fusarium graminearum; 3.6% AI in PDA) was 100%, the “Efficacy (%) (Abbott)” value (Phytophthora infestans; [2]) was 84.9% and the “Lesion Size” value (Phytophthora infestans; [2]) was 0.41 ± 0.57 cm^2. The “Efficacy (%) (Abbott)” value (Phytophthora infestans; [3]) was 100.0%, the “Lesion Size” value (Phytophthora infestans; [3]) was 0.00 ± 0.00 cm^2 and the “disease severity (level of sporulation)” value (Plasmopara viticola; 1 mL/L, preventive spray, 7 days after the artificial inoculation) was 5.3%. The disease severity (Plasmopara viticola; 10 mL/L, preventive spray, 7 days after the artificial inoculation) was 0%, the “efficacy against P. viticola” value (Plasmopara viticola; test repeated a second and a third time (data not shown)) was “comparable with the reference copper” and the “% efficacy compared to control (Abbott)” value (Botrytis cinerea; 0.042% a.i. in PDA) was 98%. For the same compound, the Average mycelium diameter (Botrytis cinerea; 0.042% a.i. in PDA) was 0.9 ± 1.8 mm, the “% efficacy compared to control (Abbott)” value (Botrytis cinerea; 0.42% a.i. in PDA) was 100% and the Average mycelium diameter (Botrytis cinerea; 0.42% a.i. in PDA) was 0.0 ± 0.0 mm. The “% efficacy compared to control (Abbott)” value (Sclerotinia sclerotiorum; 0.042% a.i. in PDA) was 98%, the Average mycelium diameter (Sclerotinia sclerotiorum; 0.042% a.i. in PDA) was 1.4 ± 0.5 mm and the “% efficacy compared to control (Abbott)” value (Sclerotinia sclerotiorum; 0.42% a.i. in PDA) was 100%. For the same compound, the Average mycelium diameter (Sclerotinia sclerotiorum; 0.42% a.i. in PDA) was 0.0 ± 0.0 mm, the “% efficacy compared to control (Abbott)” value (Pythium ultimum; 0.042% a.i. in PDA) was 100% and the Average mycelium diameter (Pythium ultimum; 0.042% a.i. in PDA) was 0.0 ± 0.0 mm. For the same compound, the “% efficacy compared to control (Abbott)” value (Pythium ultimum; 0.42% a.i. in PDA) was 100%, the Average mycelium diameter (Pythium ultimum; 0.42% a.i. in PDA) was 0.0 ± 0.0 mm and the “% efficacy compared to control (Abbott)” value (Sclerotinia minor; 0.042% a.i. in PDA) was 96%. The Average mycelium diameter (Sclerotinia minor; 0.042% a.i. in PDA) was 2.8 ± 4.3 mm, the “% efficacy compared to control (Abbott)” value (Sclerotinia minor; 0.42% a.i. in PDA) was 99% and the Average mycelium diameter (Sclerotinia minor; 0.42% a.i. in PDA) was 0.8 ± 0.9 mm. The “% efficacy compared to control (Abbott)” value (Rhizoctonia solani; 0.042% a.i. in PDA) was 67%, the Average mycelium diameter (Rhizoctonia solani; 0.042% a.i. in PDA) was 17.1 ± 1.9 mm and the “% efficacy compared to control (Abbott)” value (Rhizoctonia solani; 0.42% a.i. in PDA) was 100%. The Average mycelium diameter (Rhizoctonia solani; 0.42% a.i. in PDA) was 0.3 ± 0.5 mm, the “disease incidence (percentage of infected leaves)” value (powdery mildew on apple) was 25.5% and the “symptoms of phytotoxicity on the plants” value (apple trees) was “no symptoms of phytotoxicity”. For the same compound, the “phytotoxicity symptoms on leaflets” value (Bintje leaflets) was “some minor phytoxicity symptoms on the edge and stem” and the “surface of leaf covered by powdery mildew” value [1] was “less than 5%”.
